Values of other authors, collected in patent US20160095816A2, “ARTICLE AND METHODS FOR ORAL SELF-ADMINISTRATION OF NICOTINE” (priority 2012, published 2016).

How the values were obtained:
[1] = metabolized in the liver
[2] = cigarette smoking, inhaled; "may be as high as"

Question: What does the source list for `CN1CCCC1c1cccnc1` (centres unmarked) [Nicotine, 3-(1-Methyl-2-pyrrolidinyl) pyridine]?
Answer: half life in the bloodstream [1]: 1 to 2 h; peak of nicotine delivered into the bloodstream through smoking [2]: 30-40 nanograms per milliliter of blood
